What was measured:
[1] = Hydroxyl radical scavenging efficacy (Fenton system, DMPO spin trap, EPR)
Protocol: Hydroxyl radical scavenging efficacy of cilostazol was determined in air-saturated phosphate buffer (10 mM) at room temperature. The reaction was initiated by addition of a small aliquot (5 μL) of Fe^2+ solution (10 mM FeSO4 in 10 mM HCl) to a buffer containing cilostazol, H2O2 (0.12 mM) and 5,5-dimethyl-1-pyrroline-N-oxide (DMPO) (1 mM). The sample was transferred quickly to flat quartz electron paramagnetic resonance (EPR) cell, and measurements were started immediately.
The EPR spectra of the spin-adduct of DMPO with the hydroxyl radical: DMPO/.OH was observed when DMPO reacted with hydroxyl radical generated by the Fenton system. The EPR spectra (.OH) are shown in the accompanying FIG. 1. Scavenging of hydroxyl radicals was confirmed by using catalase (0.510 U/ml) (data not shown).

[2] = Peroxyl radical absorbing capacity (PRAC) assay; details: 1 PRAC unit is the value of 1 μM of trolox, β-phycoerythrin fluorescence, 37° C.
Protocol: According to the method described by Cao et al. (Cao G, Alessio HM, Cutler RG (1993), Oxygen-radical absorbance capacity assay for antioxidants, Free Radic. Biol. Med 14: 303-311), the assay is based on production of peroxyl radicals by 2,2′-azobis(2-amidinopropane) hydrochloride (3 mM), a peroxyl radical generator, with subsequent oxidation of the reporter protein, β-phycoerythrin (16.7 nM) in 24 well plates. Into each sample well, either 20 μl of phosphate buffer or 20 μl of each concentration of cilostazol was included. After adding 2,2′-azobis(2-amidinopropane) hydrochloride, the reaction mixture was incubated at 37° C. Loss of fluorescence was measured every 5 minutes at the emission of 590 nm and excitation of 485 nm using Fluorescence Plate Reader (Bio-Tek Instruments, Inc., Winooski, USA). The PRAC value of the compound is reflected in the increase of area under curve of fluorescence versus time. Trolox was used as a reference for PRAC assay. The fluorescence just prior to addition of the 2,2′-azobis(2-amidinopropane) hydrochloride was estimated as the 100% value for that sample. The PRAC values were calculated by the following equation: [formula]
where 1 PRAC unit is the value of 1 μM of trolox.
The time-dependent decrease of β-phycoerythrin fluorescence in the absence (blank) and the presence of different concentrations of cilostazol is shown, in the accompanying FIG. 2. […]

O=C1CCc2cc(OCCCCc3nnnn3C3CCCCC3)ccc2N1 [cilostazol, 6-[4-(1-cyclohexyl-1H-tetrazol-5-yl)butoxy]-3,4-dihydrocarbostyril]
DMPO/.OH adduct EPR signals ([1]; 10^−5 M of cilostazol): almost ameliorated
IC50 ([1]; DMPO/.OH adduct formation, Fenton system, phosphate buffer 10 mM, room temperature, EPR, read-out: concentration required for inhibiting hydroxyl radical formation (IC50)): 2580 ± 70 nM
PRAC value ([2]; 10^−4 M cilostazol): 1.938 unit
PRAC value ([2]; 10^−6 M cilostazol): 1.325 unit

— US6743806B2, “Active oxygen scavenger” (Otsuka Pharmaceutical Company, Limited, priority 2002, dated 2004)
